# From patent publication US20260242359A1, “IRHOM2 INHIBITORS AND USES THEREOF” (NEW YORK SOCIETY FOR THE RELIEF OF THE RUPTURED AND …, priority 2023, published 2026)
# Where two headings read alike, the source gives them in different places.
# Test system: LPS-induced release of endogenous TNFα from human THP-1 macrophage cells
# Assay: Example 12: ELISA-based TNFα release assay, LPS-induced, THP-1 macrophage cells
# Format: cell-based
# Conditions: for inhibition at 10 µM: Homo sapiens, THP-1, 2 h, read-out: inhibition of LPS-induced release of TNFα from THP-1 cells
# Experimental: In the following study, ELISA-based TNFα release assay was performed to verify the inhibitory effects of Compounds 1, 2, 3, 4, 5, and 7 on LPS-induced release of endogenous TNFα from human THP-1 macrophage cells. The ELISA-based TNFα release assay that was used in this example is described below.
# In brief, on day 1, Nunc black MaxiSorp® 96-well plates (Thermo Fisher Scientific, USA) were coated overnight with 100 μl per well of mouse anti-human TNFα capture antibody (provided as part of the DuoSet ELISA kit) at 4 μg/ml TBS at 4° C. On day 2, the capture antibody solution was removed and MaxiSorp® plates were blocked with 300 μl per well of TBS, 1% BSA at room temperature for 3 hours. Meanwhile, 20,000 THP-1 (American Type Culture Collection, USA) cells in 80 μl of normal growth medium were seeded in each well of Greiner CELLSTAR V-bottom 96-well plates (Thermo Fisher Scientific, USA) and pre-incubated with 20 μl per well of standard growth medium supplemented with Batimastat (BB94, Abcam, UK) at 50 μM as positive control (for a final concentration of 10 μM in the resulting 100 μl sample volume), compounds of the invention at 50 μM (for a final concentration of 10 μM in the resulting 100 μl sample volume) and in case of Buffer stimulated and unstimulated controls with DMSO (Carl Roth, Germany) at 50 μM (for a final concentration of 10 μM in the resulting 100 μl sample volume) at 37° C., 5% CO2 for 30 minutes. Subsequently, cells (except those for unstimulated controls) were stimulated with 20 μl per well of LPS (Sigma-Aldrich, USA) at 300 ng/ml growth medium for a final concentration of 50 ng/ml at 37° C., 5% CO2 for 2 hours. Afterwards, the 96-well plates were centrifuged to pellet cells. In parallel, blocking buffer was removed from the MaxiSorp® plates and plates were washed 4 times with 350 μl per well of TBS-T (Carl Roth, Germany) on a 96-head plate washer (Tecan Group, Switzerland). To avoid drying-up, 30 μl of TBS were added to each well of the MaxiSorp® plates immediately, followed by the transfer of 70 μl of cell-free supernatant per sample. Additionally, 100 μl of recombinant human TNFα protein (provided as part of the DuoSet ELISA kit) diluted in TBS at defined concentrations were added to the plate as standard references. Thereafter, 100 μl per well of biotinylated goat anti-human TNFα detection antibody (provided as part of the DuoSet ELISA kit) at 50 ng/ml TBS were added and, protected from direct light, plates were incubated at room temperature for 2 hours. After 4 times washing with 350 μl per well of TBS-T (Carl Roth, Germany) on a 96-head plate washer (Tecan Group, Switzerland) and careful removal of all buffer traces after the fourth cycle, 100 μl of streptavidin-AP (R&D Systems, USA) diluted 1:10,000 in TBS were added to each well and, again protected from direct light, plates were incubated at room temperature for 30 minutes. Following another round of 4 times washing with 350 μl per well of TBS-T (Carl Roth, Germany) on a 96-head plate washer (Tecan Group, Switzerland) and careful removal of all buffer traces after the fourth cycle, 100 μl of AttoPhos substrate solution (Promega, USA) was added for incubation in the dark at room temperature for 1 hour. Using an infinite M1000 PRO (Tecan Group, Switzerland) microplate reader, the fluorescence of each well was collected at an excitation wavelength of 435 nm and an emission wavelength of 555 nm.
# The delta between Buffer stimulated and Buffer unstimulated was defined 100% inhibition.
# [1] = 10 μM final concentration, LPS 50 ng/ml, 2 hours, delta Buffer stimulated vs unstimulated = 100% inhibition
SMILES,inhibition of LPS-induced release of TNFα from THP-1 cells [1],inhibition at 10 µM [1],inhibition at 10 µM
"CNC(=O)[C@H](Cc1ccccc1)NC(=O)[C@H](CC(C)C)[C@H](CSc1cccs1)C(=O)NO [Batimastat, reference compound]",94.9%,87.4%,–
CCC(=O)NCCc1c(/C=C2/C(=O)NC(=O)N(c3ccc(C)cc3C)C2=O)[nH]c2ccccc12 [Compound 1],–,–,100%
CCOC(=O)c1ccc(Nc2nc3nonc3n3nnnc23)cc1 [Compound 2],–,94.6%,–
O=C(c1c(Cl)cccc1Cl)N1CCC(Cc2ccc(F)cc2)CC1 [Compound 3],–,93.1%,–
Cc1c(C(=O)NCc2cccs2)sc(=O)n1Cc1ccccc1 [Compound 4],–,58.2%,–
Cc1c(C(=O)NCc2cccs2)sc(=O)n1Cc1ccccc1F [Compound 5],–,66.1%,–
Cc1c(C(=O)NCc2ccco2)sc(=O)n1Cc1ccccc1F [Compound 7],–,85.8%,–
